“And” between values parts separate entries of the source, which are not always exact repeats. Identical values can stand only once. Each block holds one compound with its values, some of them ahead of it.
Test system: 941728-121-R-J1-PDC complex spheroid viability
Test: Anticancer human tumor 941728-121-R-J1-PDC patient-derived lung adenocarcinoma cell line growth inhibition [RAS]
Details: for viability, T/C: stronger effect = lower value
Excerpt: RAS pathway inhibitors in Combinations in Complex Spheroids
A high-throughput screen of multi-cell type tumor spheroids was designed to identify active combinations of RAS pathway inhibitors and targeted small molecules. Complex spheroids include a stromal component modeled by human endothelial cells (HUVEC) and fibroblasts modeled by human mesenchymal stem cells (MSCs). The concentration ranges selected for each drug and investigational agent were based upon clinically achievable concentrations if the clinical Cmax of the agent was known.
Compounds. The drugs and investigational agents: abemaciclib (NSC768073), cobimetinib (NSC768068), divarasib (GDC6063, NSC841802), docetaxel (NSC628503), GDC-1971 (RLY-1971, NSC841576), gemcitabine (NSC613327), inavolisib (NSC800729), ipatasertib (NSC767898), KB-0742 (NSC834161), MRTX-1133 (NSC836407), osimertinib (NSC779217), RMC-4630 (NSC839698), RMC-6236 (NSC851965), RMC-6291 (NSC852671), Ro-3306 (NSC812927), sapanisertib (NSC764658), SN-38 (NSC673596), staurosporine (NSC755774), SY5609 (NSC837396), and tovorafenib (DAY101, NSC766906), were obtained from the National Cancer Institute (NCI) Developmental Therapeutics Program Chemical Repository. The FDA-approved anticancer drug set is available from the NCI Developmental Therapeutics Program. […] The stock solutions were prepared in dimethyl sulfoxide (DMSO, Sigma-Aldrich, St. Louis, MO, cat. D2650) at 800-fold the tested concentration and stored at -70 degrees C prior to their use. All drugs and investigational agents were tested over a range starting from a high concentration at or near the clinical Cmax and decreasing in half-log increments. If the clinical Cmax for an agent had not been determined, the highest concentration tested was 10 microM.
Cell Culture. All cells were maintained in an incubator at 37 degrees C and 5% CO2 with 95% humidity. The PDC lines were cultured according to standard operating procedures established by the NCI PDMR. All PDCs were thawed and cultured in Matrigel-coated flasks prepared with a working solution of 1X Ham's F-12 nutrient mix, without supplementation (Invitrogen, Waltham, MA, cat. 11765054), 100 U/mL penicillin-streptomycin (Invitrogen, cat. 15140122), and 2.5% Matrigel (Corning Inc., Corning, NY, cat. 354248) for the first three passages. The 362531-283-R-J2-PDC and 782815-120-R-J1-PDC lines were cultured in 6C/Colon 1B media, which includes advanced DMEM/F-12 (Thermo Fisher Scientific, cat. 12634028), 10 mM HEPES (Thermo Fisher Scientific, cat. 15630080), 1X GlutaMAX supplement (Thermo Fisher Scientific, cat. 35050061), 0.1 mg/mL primocin (InvivoGen, San Diego, CA, cat. ant-pm-2), 10% defined fetal bovine serum, heat inactivated (HyClone Laboratories Inc., Logan, UT, cat. SH30070.03HI), 50% L-WRN conditioned media (ATCC, cat. CRL-3276), 1.25 mM N-Acetyl-L-cysteine (Sigma-Aldrich, cat. A9165), 10 mM nicotinamide (Sigma-Aldrich, cat. N0636), 1X B-27 supplement (Thermo Fisher Scientific, cat. 17504044), 1X N-2 supplement (Thermo Fisher Scientific, cat. 17502048), 50 ng/mL human EGF (Thermo Fisher Scientific, cat. PHG0311), and 10 microM Y-27632 dihydrochloride (Tocris Bioscience, cat. 1254). The K12877-001-R-J1-PDC line was cultured in 6I media, which includes all 6C/Colon 1B media plus 10 ng/mL human FGF-10 (PeproTech, cat. 100-26), 1 ng/mL human FGF-2 (PeproTech, cat. 100-18B), 1 µM prostaglandin E2 (Tocris Bioscience, cat. 2296), […] hydrocortisone (Sigma-Aldrich, cat. H4001), and […] bovine insulin (Sigma-Aldrich, cat. I6634). The K86415-001-R-J1-PDC line was cultured in 6D media, which includes all 6C/Colon 1B media components minus the L-WRN conditioned media. The 485176-168-R4-J1-PDC was cultured in PANC media, which includes all 6C/Colon 1B media plus 100 ng/mL human FGF-10 (PeproTech, cat. 100-26), 500 nM SB-431542 (Selleckchem, cat. S1067), and 10 nM gastrin (Tocris Bioscience, cat. 3006). […]

[1] = curve of first compound, second compound 0.0316 µM
[2] = curve of first compound, second compound 0.1 µM
[3] = curve of first compound, second compound 0.316 µM
[4] = curve of first compound, second compound 1 µM
[5] = curve of first compound, second compound 3.16 µM
[6] = curve of first compound, second compound 10 µM
[7] = second compound 0.0316 µM, first compound 0.00316 µM
[8] = second compound 0.0316 µM, first compound 0.01 µM
[9] = second compound 0.0316 µM, first compound 0.0316 µM
[10] = second compound 0.0316 µM, first compound 0.1 µM
[11] = second compound 0.0316 µM, first compound 0.316 µM
[12] = second compound 0.0316 µM, first compound 1 µM
[13] = second compound 0.1 µM, first compound 0.00316 µM
[14] = second compound 0.1 µM, first compound 0.01 µM
[15] = second compound 0.1 µM, first compound 0.0316 µM
[16] = second compound 0.1 µM, first compound 0.1 µM
[17] = second compound 0.1 µM, first compound 0.316 µM
[18] = second compound 0.1 µM, first compound 1 µM
[19] = second compound 0.316 µM, first compound 0.00316 µM
[20] = second compound 0.316 µM, first compound 0.01 µM
[21] = second compound 0.316 µM, first compound 0.0316 µM
[22] = second compound 0.316 µM, first compound 0.1 µM
[23] = second compound 0.316 µM, first compound 0.316 µM
[24] = second compound 0.316 µM, first compound 1 µM
[25] = second compound 1 µM, first compound 0.00316 µM
[26] = second compound 1 µM, first compound 0.01 µM
[27] = second compound 1 µM, first compound 0.0316 µM
[28] = second compound 1 µM, first compound 0.1 µM
[29] = second compound 1 µM, first compound 0.316 µM
[30] = second compound 1 µM, first compound 1 µM
[31] = second compound 3.16 µM, first compound 0.00316 µM
[32] = second compound 3.16 µM, first compound 0.01 µM
[33] = second compound 3.16 µM, first compound 0.0316 µM
[34] = second compound 3.16 µM, first compound 0.1 µM
[35] = second compound 3.16 µM, first compound 0.316 µM
[36] = second compound 3.16 µM, first compound 1 µM
[37] = second compound 10 µM, first compound 0.00316 µM
[38] = second compound 10 µM, first compound 0.01 µM
[39] = second compound 10 µM, first compound 0.0316 µM
[40] = second compound 10 µM, first compound 0.1 µM
[41] = second compound 10 µM, first compound 0.316 µM
[42] = second compound 10 µM, first compound 1 µM
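Further: spheroids exposed to compounds for 7 days before readout.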
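Wherever viability, T/C is given: 100% = DMSO vehicle control viability.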

SMILES: CC(=O)OC12COC1CC(O)C1(C)C(=O)C(O)C3=C(C)C(OC(=O)C(O)C(NC(=O)OC(C)(C)C)c4ccccc4)CC(O)(C(OC(=O)c4ccccc4)C21)C3(C)C (centres undefined)
viability, T/C (compound 0.0316 µM): 51.2% [middle of 4 runs]
viability, T/C (compound 0.1 µM): 54.9% [middle of 4 runs]
viability, T/C (compound 0.316 µM): 48.2% [middle of 4 runs]
viability, T/C (compound 1 µM): 49% [middle of 4 runs]
viability, T/C (compound 3.16 µM): 47.4% [middle of 4 runs]
viability, T/C (compound 10 µM): 56.4% [middle of 4 runs]

IC50 (curve of compound): 2030 nM and 2530 nM and 2050 nM
SMILES: CCC(CC)c1cc(NC2CCC(N)C2)n2nccc2n1 (centres undefined)
viability, T/C (compound 0.1 µM): 105% [middle of 4 runs]
viability, T/C (compound 0.316 µM): 95.6% [middle of 4 runs]
viability, T/C (compound 3.16 µM): 30.5% [middle of 4 runs]
viability, T/C (compound 10 µM): 44% [middle of 4 runs]

SMILES: Nc1ccn(C2OC(CO)C(O)C2(F)F)c(=O)n1 (centres undefined)
viability, T/C (compound 0.0316 µM): 56.4% [middle of 4 runs]
viability, T/C (compound 0.1 µM): 57.3% [middle of 4 runs]
viability, T/C (compound 0.316 µM): 52.7% [middle of 4 runs]
viability, T/C (compound 1 µM): 43% [middle of 4 runs]

IC50 [1]: 142 nM
IC50 [2]: 54.7 nM
IC50 [3]: 16.8 nM
IC50 [4]: < 3.16 nM
IC50 [5]: < 3.16 nM
IC50 [6]: < 3.16 nM
SMILES: C=CC(=O)Nc1cc(Nc2nccc(-c3cn(C)c4ccccc34)n2)c(OC)cc1N(C)CCN(C)C + C#Cc1c(F)ccc2cc(O)cc(-c3ncc4c(N5CC6CCC(C5)N6)nc(OCC56CCCN5CC(F)C6)nc4c3F)c12
viability, T/C [7]: 79.4%
viability, T/C [8]: 70.4%
viability, T/C [9]: 61.4%
viability, T/C [10]: 51%
viability, T/C [11]: 44.9%
viability, T/C [12]: 39.5%
viability, T/C [13]: 78.5%
viability, T/C [14]: 65.6%
viability, T/C [15]: 58%
viability, T/C [16]: 40.9%
viability, T/C [17]: 42.1%
viability, T/C [18]: 36.4%
viability, T/C [19]: 56.1%
viability, T/C [20]: 57.7%
viability, T/C [21]: 41.7%
viability, T/C [22]: 36.6%
viability, T/C [23]: 32.8%
viability, T/C [24]: 33.8%
viability, T/C [25]: 35.2%
viability, T/C [26]: 39.1%
viability, T/C [27]: 31.6%
viability, T/C [28]: 29.2%
viability, T/C [29]: 29.5%
viability, T/C [30]: 30%
viability, T/C [31]: 30.3%
viability, T/C [32]: 26.5%
viability, T/C [33]: 26.5%
viability, T/C [34]: 26.1%
viability, T/C [35]: 26%
viability, T/C [36]: 24.6%
viability, T/C [37]: 22.1%
viability, T/C [38]: 22.3%
viability, T/C [39]: 19.7%
viability, T/C [40]: 19.3%
viability, T/C [41]: 20%
viability, T/C [42]: 17.5%

IC50 [1]: 14.5 nM
IC50 [2]: 9.8 nM
IC50 [3]: < 3.16 nM
IC50 [4]: < 3.16 nM
IC50 [5]: < 3.16 nM
IC50 [6]: < 3.16 nM
SMILES: O=C(c1ccc(F)c(F)c1Nc1ccc(I)cc1F)N1CC(O)([C@@H]2CCCCN2)C1 + C#Cc1c(F)ccc2cc(O)cc(-c3ncc4c(N5CC6CCC(C5)N6)nc(OCC56CCCN5CC(F)C6)nc4c3F)c12
viability, T/C [7]: 71%
viability, T/C [8]: 55.9%
viability, T/C [9]: 37.7%
viability, T/C [10]: 31.2%
viability, T/C [11]: 29.6%
viability, T/C [12]: 24.4%
viability, T/C [13]: 70.6%
viability, T/C [14]: 49.2%
viability, T/C [15]: 37%
viability, T/C [16]: 31%
viability, T/C [17]: 28.3%
viability, T/C [18]: 23.9%
viability, T/C [19]: 47.9%
viability, T/C [20]: 44.9%
viability, T/C [21]: 31.9%
viability, T/C [22]: 29%
viability, T/C [23]: 30.5%
viability, T/C [24]: 21.6%
viability, T/C [25]: 33.8%
viability, T/C [26]: 29.7%
viability, T/C [27]: 31.9%
viability, T/C [28]: 29.1%
viability, T/C [29]: 29.2%
viability, T/C [30]: 20.8%
viability, T/C [31]: 24.5%
viability, T/C [32]: 28.5%
viability, T/C [33]: 27.4%
viability, T/C [34]: 25.7%
viability, T/C [35]: 21.9%
viability, T/C [36]: 19.1%
viability, T/C [37]: 22%
viability, T/C [38]: 18.8%
viability, T/C [39]: 17.7%
viability, T/C [40]: 18.1%
viability, T/C [41]: 15.5%
viability, T/C [42]: 12.2%

Reference: PubChem BioAssay AID2060896 (Molecular Pharmacology Branch, DTP, NCI, 2025)
